Measurements: paper PMC6253949, “The Inhibitory Action of Kohamaic Acid A Derivatives on Mammalian DNA Polymerase β” (Molecules, 2008)

How the values were obtained:
[1] = system: HL-60 cells; assay: HL-60 cancer cell growth, MTT assay; type: cell-based, human; details: 50 μM, 24 hr
Procedure: To investigate the effects of KA-A derivatives in cultured cells, we used a human cancer cell line, HL-60, human promyelocytic leukemia cells (IFO 050022), supplied by the Health Science Research Resources Bank (Osaka, Japan). The cells were routinely cultured in RPMI 1640 medium supplemented with 10% fetal bovine serum, 100 μg/mL streptomycin, 100 unit/mL penicillin, and 1.6 mg/mL NaHCO3. The cells were cultured at 37 °C in standard medium in a humidified atmosphere of 5% CO2-95% air. The rate of the cancer cell growth of the compound was investigated as follows: high concentrations (10 mM) of the compounds were dissolved in DMSO and stocked. Approximately 1 x 10^4 cells per well were inoculated in 96-well micro plates, and then the compound stock solution was diluted to various concentrations, and applied to each well. After incubation for 24 hr, the survival rate was determined by MTT (3-(4,5-dimethylthiazol-2-yl)-2,5-diphenyl tetrazolium bromide) assay.

[2] = biological target: Calf Primase of DNA polymerase α (Bos taurus, UniProt A0A3Q1MF00+A0JNF4); assay: Primase activity assay of calf pol α; type: biochemical
Procedure: The primase activity of calf pol α, the activities of T7 RNA polymerase, T4 polynucleotide kinase and bovine DNase I were measured in standard assays according to the manufacturer's specifications as described by Tamiya-Koizumi et al., Nakayama et al., Soltis et al., and Lu and Sakaguchi, respectively.

[3] = biological target: T1, Human DNA polymerase δ (Homo sapiens, UniProt P28340); assay: DNA polymerase assay, human pol δ; type: biochemical
T1 construct: Human pols δ and ε were purified by the nuclear fractionation of human peripheral blood cancer cells (Molt-4); endogenous in cells; host or cells: Molt-4
T1 sequence (P28340 1-1107): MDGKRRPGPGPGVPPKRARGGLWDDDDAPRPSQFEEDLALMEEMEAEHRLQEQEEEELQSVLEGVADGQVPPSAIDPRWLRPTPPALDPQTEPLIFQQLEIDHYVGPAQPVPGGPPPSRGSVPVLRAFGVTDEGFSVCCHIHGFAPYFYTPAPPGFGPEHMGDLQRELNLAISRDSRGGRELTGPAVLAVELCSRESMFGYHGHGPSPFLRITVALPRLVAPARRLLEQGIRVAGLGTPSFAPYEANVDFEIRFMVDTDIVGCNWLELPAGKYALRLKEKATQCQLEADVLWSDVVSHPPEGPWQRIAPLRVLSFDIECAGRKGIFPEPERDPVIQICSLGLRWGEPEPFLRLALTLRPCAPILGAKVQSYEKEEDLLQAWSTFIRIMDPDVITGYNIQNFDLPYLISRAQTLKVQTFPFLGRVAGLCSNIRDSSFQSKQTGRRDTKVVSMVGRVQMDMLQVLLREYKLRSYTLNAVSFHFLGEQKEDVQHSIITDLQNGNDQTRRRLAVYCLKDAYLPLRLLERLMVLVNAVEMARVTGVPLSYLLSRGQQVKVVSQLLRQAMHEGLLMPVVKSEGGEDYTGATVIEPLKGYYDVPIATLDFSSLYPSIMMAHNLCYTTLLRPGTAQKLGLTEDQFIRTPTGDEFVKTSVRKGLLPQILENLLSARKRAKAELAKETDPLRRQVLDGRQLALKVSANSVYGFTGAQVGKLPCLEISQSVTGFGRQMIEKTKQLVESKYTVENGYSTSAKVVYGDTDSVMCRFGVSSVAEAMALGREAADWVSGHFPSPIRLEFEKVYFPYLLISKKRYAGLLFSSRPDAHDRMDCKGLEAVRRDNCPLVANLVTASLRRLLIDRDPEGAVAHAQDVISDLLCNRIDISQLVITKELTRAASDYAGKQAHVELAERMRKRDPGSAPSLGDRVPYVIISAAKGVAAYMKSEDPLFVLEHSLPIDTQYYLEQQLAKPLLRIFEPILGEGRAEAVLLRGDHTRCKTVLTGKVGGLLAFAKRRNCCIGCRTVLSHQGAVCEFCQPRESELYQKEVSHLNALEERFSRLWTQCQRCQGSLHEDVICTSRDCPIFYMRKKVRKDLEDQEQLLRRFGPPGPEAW
Text: Pol α was purified from calf thymus by immuno-affinity column chromatography as described by Tamai et al.. Recombinant rat pol β was purified from E. coli JMpβ5 as described by Date et al.. The human pol γ catalytic gene was cloned into pFastBac. Histidine-tagged enzyme was expressed using the BAC-TO-BAC HT Baculovirus Expression System according to the supplier's manual (LIFE TECHNOLOGIES, MD, USA) and purified using ProBoundresin (Invitrogen Japan, Tokyo, Japan). Human pols δ and ε were purified by the nuclear fractionation of human peripheral blood cancer cells (Molt-4) using the second subunit of pols δ and ε-conjugated affinity column chromatography, respectively. Recombinant human pols η and ι tagged with His6 at their C-terminal were expressed in SF9 insect cells using the baculovirus expression system, and were purified as described previously. A truncated form of pol κ (i.e., hDINB1DC) with 6 x His-tags attached at the C-terminal was overproduced using the BAC-to-BAC Baculovirus Expression System kit (GIBCO BRL, MD, USA) and purified as described previously. […]
For pols, poly(dA)/oligo(dT)12-18 (A/T = 2/1) and dTTP were used as the DNA template-primer and nucleotide (i.e., dNTP) substrate, respectively. […] Activity without the inhibitor was considered 100%, and the remaining activity at each concentration of the inhibitor was determined relative to this value. […]

Calf Primase of DNA polymerase α, sequence (A0AAA9THK8 entry or part of it): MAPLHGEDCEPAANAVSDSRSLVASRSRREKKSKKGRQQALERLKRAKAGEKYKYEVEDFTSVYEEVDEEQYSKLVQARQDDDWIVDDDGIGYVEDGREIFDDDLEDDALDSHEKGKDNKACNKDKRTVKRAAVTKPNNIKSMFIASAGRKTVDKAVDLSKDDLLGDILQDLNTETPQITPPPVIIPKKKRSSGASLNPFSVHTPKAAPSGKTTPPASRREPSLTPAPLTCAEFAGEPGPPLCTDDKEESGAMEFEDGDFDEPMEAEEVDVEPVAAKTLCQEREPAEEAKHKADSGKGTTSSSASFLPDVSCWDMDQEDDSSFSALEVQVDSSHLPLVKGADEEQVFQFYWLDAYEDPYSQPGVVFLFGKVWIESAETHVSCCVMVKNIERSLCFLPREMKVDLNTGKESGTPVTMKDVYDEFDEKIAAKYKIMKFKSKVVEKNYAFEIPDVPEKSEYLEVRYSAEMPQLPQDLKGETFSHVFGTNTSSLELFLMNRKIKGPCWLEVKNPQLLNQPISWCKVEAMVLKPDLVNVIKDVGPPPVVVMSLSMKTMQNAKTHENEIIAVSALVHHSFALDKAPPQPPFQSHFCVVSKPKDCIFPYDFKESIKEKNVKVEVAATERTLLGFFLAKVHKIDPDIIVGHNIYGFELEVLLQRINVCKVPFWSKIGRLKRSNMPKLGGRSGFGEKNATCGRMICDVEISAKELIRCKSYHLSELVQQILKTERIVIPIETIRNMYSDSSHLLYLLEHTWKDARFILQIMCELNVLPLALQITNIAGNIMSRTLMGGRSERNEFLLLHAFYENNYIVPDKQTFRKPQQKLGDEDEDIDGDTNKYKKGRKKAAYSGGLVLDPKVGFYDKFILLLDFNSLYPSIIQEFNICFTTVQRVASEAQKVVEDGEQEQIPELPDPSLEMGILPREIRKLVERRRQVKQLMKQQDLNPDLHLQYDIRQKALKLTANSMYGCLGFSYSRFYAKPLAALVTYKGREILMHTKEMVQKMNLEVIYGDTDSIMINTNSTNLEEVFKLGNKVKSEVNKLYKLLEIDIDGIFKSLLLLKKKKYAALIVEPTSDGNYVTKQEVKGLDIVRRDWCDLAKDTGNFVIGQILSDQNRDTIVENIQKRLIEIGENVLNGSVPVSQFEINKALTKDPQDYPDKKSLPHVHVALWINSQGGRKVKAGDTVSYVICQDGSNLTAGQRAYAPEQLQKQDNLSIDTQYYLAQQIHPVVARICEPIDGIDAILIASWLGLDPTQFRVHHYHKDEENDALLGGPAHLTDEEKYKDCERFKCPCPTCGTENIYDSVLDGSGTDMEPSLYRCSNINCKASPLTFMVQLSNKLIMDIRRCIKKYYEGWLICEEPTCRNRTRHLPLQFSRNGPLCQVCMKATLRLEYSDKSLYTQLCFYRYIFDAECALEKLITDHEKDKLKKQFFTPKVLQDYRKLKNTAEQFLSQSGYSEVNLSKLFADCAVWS
Calf Primase of DNA polymerase α, sequence (A0JNF4 entry or part of it): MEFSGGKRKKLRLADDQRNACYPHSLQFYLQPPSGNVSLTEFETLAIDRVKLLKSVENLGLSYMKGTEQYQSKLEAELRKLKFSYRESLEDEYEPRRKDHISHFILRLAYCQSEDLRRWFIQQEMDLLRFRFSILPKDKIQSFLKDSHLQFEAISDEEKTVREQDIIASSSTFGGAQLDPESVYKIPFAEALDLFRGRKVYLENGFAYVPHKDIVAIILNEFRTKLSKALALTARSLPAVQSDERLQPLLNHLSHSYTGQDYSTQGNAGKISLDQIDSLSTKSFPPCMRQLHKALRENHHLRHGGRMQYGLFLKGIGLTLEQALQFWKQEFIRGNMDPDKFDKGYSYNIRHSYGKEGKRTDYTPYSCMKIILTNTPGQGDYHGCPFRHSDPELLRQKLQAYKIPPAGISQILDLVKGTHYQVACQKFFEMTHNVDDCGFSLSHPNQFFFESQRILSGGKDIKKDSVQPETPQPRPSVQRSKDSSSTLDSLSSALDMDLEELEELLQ
Calf Primase of DNA polymerase α, sequence (Q58D13 whole entry, further chain): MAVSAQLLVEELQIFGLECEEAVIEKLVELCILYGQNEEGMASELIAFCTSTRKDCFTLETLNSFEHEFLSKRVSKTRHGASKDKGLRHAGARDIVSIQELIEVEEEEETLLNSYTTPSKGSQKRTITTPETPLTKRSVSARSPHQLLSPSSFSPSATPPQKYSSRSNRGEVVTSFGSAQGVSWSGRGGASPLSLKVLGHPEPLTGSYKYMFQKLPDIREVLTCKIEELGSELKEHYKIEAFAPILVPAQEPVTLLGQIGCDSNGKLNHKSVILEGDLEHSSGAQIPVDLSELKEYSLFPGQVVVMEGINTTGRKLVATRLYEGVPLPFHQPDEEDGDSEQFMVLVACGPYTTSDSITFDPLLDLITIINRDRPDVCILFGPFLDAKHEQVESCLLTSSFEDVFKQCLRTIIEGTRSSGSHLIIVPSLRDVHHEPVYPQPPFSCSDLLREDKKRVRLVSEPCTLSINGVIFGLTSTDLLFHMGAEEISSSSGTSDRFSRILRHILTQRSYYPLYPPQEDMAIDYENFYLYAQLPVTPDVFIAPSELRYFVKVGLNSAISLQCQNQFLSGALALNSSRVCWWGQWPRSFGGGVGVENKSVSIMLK
Calf Primase of DNA polymerase α, sequence (A0A3Q1MF00 entry or part of it): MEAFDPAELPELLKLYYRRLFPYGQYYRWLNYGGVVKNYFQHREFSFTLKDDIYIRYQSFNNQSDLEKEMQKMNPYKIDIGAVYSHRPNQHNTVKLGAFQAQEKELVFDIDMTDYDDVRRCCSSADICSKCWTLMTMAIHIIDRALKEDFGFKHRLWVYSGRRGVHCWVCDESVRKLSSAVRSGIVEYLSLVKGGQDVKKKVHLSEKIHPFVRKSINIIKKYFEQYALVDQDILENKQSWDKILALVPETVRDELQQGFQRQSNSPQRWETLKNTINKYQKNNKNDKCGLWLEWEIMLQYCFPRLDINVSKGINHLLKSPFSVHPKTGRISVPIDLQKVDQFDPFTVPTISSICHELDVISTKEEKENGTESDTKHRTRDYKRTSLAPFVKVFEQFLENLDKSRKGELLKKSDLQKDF

Which results are given for CC1=CC[C@H]2C(C)(C)CCC[C@]2(C)[C@H]1CCCCCCCCCCCCCCCCC(=O)O (relative stereo) [compound 11, (1S*,4aS*,8aS*)-17-(1,4,4a,5,6,7,8,8a-octahydro-2,5,5,8a-tetramethylnaphthalen-1-yl)heptadecanoic acid]?
Growth inhibitory effect on HL-60 cells, rank among compounds tested [1]: strongest growth inhibitory effect; IC50 [2]: > 200 µM; IC50 [3]: 4.89 ± 0.24 µM
